Values joined by “and” are separate entries in the source; they are usually repeats but may differ in a detail not shown here. Equal values may be shown once.
System: patients with treatment-resistant major depressive disorder (TRD)
Experiment: Phase 1/2 clinical trial of inhaled 5-MeO-DMT in treatment-resistant depression
Conditions: for MADRS Concentration Difficulties % improvement / MADRS Concentration Difficulties improvement / MADRS Inability to Feel % improvement / MADRS Inability to Feel improvement / MADRS Inner Tension % improvement / MADRS Inner Tension improvement / MADRS Lassitude % improvement / MADRS Lassitude improvement / MADRS Pessimistic Thoughts % improvement / MADRS Pessimistic Thoughts improvement / MADRS Suicidal Thoughts % improvement / MADRS Suicidal Thoughts improvement / MADRS Suicidal Thoughts aggregated score / MADRS Inner Tension aggregated score / MADRS Concentration Difficulties aggregated score / MADRS Inability to Feel aggregated score / MADRS Lassitude aggregated score / MADRS Pessimistic Thoughts aggregated score / BPRS Anxiety % improvement / BPRS Anxiety improvement / BPRS Blunted Affect % improvement / BPRS Blunted Affect improvement / BPRS Emotional Withdrawal % improvement / BPRS Emotional Withdrawal improvement / BPRS Guilt Feelings % improvement / BPRS Guilt Feelings improvement / BPRS Tension % improvement / BPRS Tension improvement / BPRS Blunted Affect aggregated score / BPRS Emotional Withdrawal aggregated score / BPRS Tension aggregated score / BPRS Guilt Feelings aggregated score / BPRS Anxiety aggregated score / MADRS Reduced Sleep % improvement / MADRS Reduced Sleep improvement / MADRS Reduced Sleep aggregated score: 12 mg n=4; for MADRS Suicidal Thoughts aggregated score: baseline 8; for MADRS Inner Tension aggregated score / BPRS Emotional Withdrawal aggregated score: baseline 13; for MADRS Concentration Difficulties aggregated score / MADRS Inability to Feel aggregated score / MADRS Lassitude aggregated score / MADRS Pessimistic Thoughts aggregated score: baseline 16; for BPRS Blunted Affect aggregated score: baseline 11; for BPRS Tension aggregated score: baseline 14; for BPRS Guilt Feelings aggregated score: baseline 18; for BPRS Anxiety aggregated score: baseline 25; for MADRS Reduced Sleep aggregated score: baseline 12
Method: Patients were assigned to different groups. In the context of the present invention, the group who received a single, 12 mg dose and the group who underwent an intra-day individualized dosing regimen (IDR) that allowed for multiple, escalating doses (6 mg, 12 mg and 18 mg) within a single day, driven by the intensity of the patient-reported psychedelic experience are of interest.
The data gathered include the assessment of the treated patients against several scales including the Montgomery Åsberg Depression Rating Scale (MADRS) and the Brief Psychiatric Rating Scale (BPRS).
This trial was designed in two parts. Part A was an open-label, single-arm, single-dose Phase 1 trial with two dose levels (12 mg (n=4) and 18 mg (n=4)). […] The primary endpoint of Part B was to assess the effects on the severity of depression, as assessed by the proportion of patients in remission on day seven after dosing, defined as a MADRS total score of less than or equal to 10.

Structure (SMILES): COc1ccc2[nH]cc(CCN(C)C)c2c1 [5-MeO-DMT]
- Patients with MADRS remission (total score ≤10) (12 mg group n=4, day seven): 50%
- Mean MADRS change from baseline (12 mg group, day seven): −21.0
- Mean MADRS change from baseline, percent (12 mg group, day seven): −65%
- MADRS Concentration Difficulties % improvement (2 h): 56% and 56.25%
- MADRS Concentration Difficulties improvement (2 h): 9 points
- MADRS Inability to Feel % improvement (2 h): 44% and 43.75%
- MADRS Inability to Feel improvement (2 h): 7 points
- MADRS Inner Tension % improvement (2 h): 85% and 84.62%
- MADRS Inner Tension improvement (2 h): 11 points
- MADRS Lassitude % improvement (2 h): 38% and 37.50%
- MADRS Lassitude improvement (2 h): 6 points
- MADRS Pessimistic Thoughts % improvement (2 h): 50%
- MADRS Pessimistic Thoughts improvement (2 h): 8 points
- MADRS Suicidal Thoughts % improvement (2 h): 63% and 62.50%
- MADRS Suicidal Thoughts improvement (2 h): 5 points
- MADRS Suicidal Thoughts aggregated score (2 h): 3
- MADRS Inner Tension aggregated score (2 h): 2
- MADRS Concentration Difficulties aggregated score (2 h): 7
- MADRS Inability to Feel aggregated score (2 h): 9
- MADRS Lassitude aggregated score (2 h): 10
- MADRS Pessimistic Thoughts aggregated score (2 h): 8
- BPRS Anxiety % improvement (3 h): 56%
- BPRS Anxiety improvement (3 h): 14 points
- BPRS Blunted Affect % improvement (3 h): 27% and 27.27%
- BPRS Blunted Affect improvement (3 h): 3 points
- BPRS Emotional Withdrawal % improvement (3 h): 15% and 15.38%
- BPRS Emotional Withdrawal improvement (3 h): 2 points
- BPRS Guilt Feelings % improvement (3 h): 50%
- BPRS Guilt Feelings improvement (3 h): 9 points
- BPRS Tension % improvement (3 h): 36% and 35.71%
- BPRS Tension improvement (3 h): 5 points
- BPRS Blunted Affect aggregated score (3 h): 8
- BPRS Emotional Withdrawal aggregated score (3 h): 11
- BPRS Tension aggregated score (3 h): 9
- BPRS Guilt Feelings aggregated score (3 h): 9
- BPRS Anxiety aggregated score (3 h): 11
- BPRS Anxiety % improvement (day 1): 76%
- BPRS Anxiety improvement (day 1): 19 points
- BPRS Blunted Affect % improvement (day 1): 45% and 45.45%
- BPRS Blunted Affect improvement (day 1): 5 points
- BPRS Emotional Withdrawal % improvement (day 1): 38% and 38.46%
- BPRS Emotional Withdrawal improvement (day 1): 5 points
- BPRS Guilt Feelings % improvement (day 1): 72% and 72.22%
- BPRS Guilt Feelings improvement (day 1): 13 points
- BPRS Tension % improvement (day 1): 57% and 57.14%
- BPRS Tension improvement (day 1): 8 points
- MADRS Concentration Difficulties % improvement (day 1): 88% and 87.50%
- MADRS Concentration Difficulties improvement (day 1): 14 points
- MADRS Inability to Feel % improvement (day 1): 94% and 93.75%
- MADRS Inability to Feel improvement (day 1): 15 points
- MADRS Inner Tension % improvement (day 1): 77% and 76.92%
- MADRS Inner Tension improvement (day 1): 10 points
- MADRS Lassitude % improvement (day 1): 100%
- MADRS Lassitude improvement (day 1): 16 points
- MADRS Pessimistic Thoughts % improvement (day 1): 56% and 56.25%
- MADRS Pessimistic Thoughts improvement (day 1): 9 points
- MADRS Reduced Sleep % improvement (day 1): 17% and 16.67%
- MADRS Reduced Sleep improvement (day 1): 2 points
- MADRS Suicidal Thoughts % improvement (day 1): 38% and 37.50%
- MADRS Suicidal Thoughts improvement (day 1): 3 points
- MADRS Suicidal Thoughts aggregated score (day 1): 5
- BPRS Blunted Affect aggregated score (day 1): 6
- MADRS Reduced Sleep aggregated score (day 1): 10
- BPRS Emotional Withdrawal aggregated score (day 1): 8
- MADRS Inner Tension aggregated score (day 1): 3
- BPRS Tension aggregated score (day 1): 6
- MADRS Concentration Difficulties aggregated score (day 1): 2
- MADRS Inability to Feel aggregated score (day 1): 1
- MADRS Lassitude aggregated score (day 1): 0
- MADRS Pessimistic Thoughts aggregated score (day 1): 7
- BPRS Guilt Feelings aggregated score (day 1): 5
- BPRS Anxiety aggregated score (day 1): 6
- BPRS Anxiety % improvement (day 7): 76%
- BPRS Anxiety improvement (day 7): 19 points
- BPRS Blunted Affect % improvement (day 7): 55% and 54.55%
- BPRS Blunted Affect improvement (day 7): 6 points
- BPRS Emotional Withdrawal % improvement (day 7): 54% and 53.85%
- BPRS Emotional Withdrawal improvement (day 7): 7 points
- BPRS Guilt Feelings % improvement (day 7): 72% and 72.22%
- BPRS Guilt Feelings improvement (day 7): 13 points
- BPRS Tension % improvement (day 7): 57% and 57.14%
- BPRS Tension improvement (day 7): 8 points
- MADRS Concentration Difficulties % improvement (day 7): 81% and 81.25%
- MADRS Concentration Difficulties improvement (day 7): 13 points
- MADRS Inability to Feel % improvement (day 7): 94% and 93.75%
- MADRS Inability to Feel improvement (day 7): 15 points
- MADRS Inner Tension % improvement (day 7): 62% and 61.54%
- MADRS Inner Tension improvement (day 7): 8 points
- MADRS Lassitude % improvement (day 7): 81% and 81.25%
- MADRS Lassitude improvement (day 7): 13 points
- MADRS Pessimistic Thoughts % improvement (day 7): 50%
- MADRS Pessimistic Thoughts improvement (day 7): 8 points
- MADRS Reduced Sleep % improvement (day 7): 50%
- MADRS Reduced Sleep improvement (day 7): 6 points
- MADRS Suicidal Thoughts % improvement (day 7): 13% and 12.50%
- MADRS Suicidal Thoughts improvement (day 7): 1 points
- MADRS Suicidal Thoughts aggregated score (day 7): 7
- BPRS Blunted Affect aggregated score (day 7): 5
- MADRS Reduced Sleep aggregated score (day 7): 6
- BPRS Emotional Withdrawal aggregated score (day 7): 6
- MADRS Inner Tension aggregated score (day 7): 5
- BPRS Tension aggregated score (day 7): 6
- MADRS Concentration Difficulties aggregated score (day 7): 3
- MADRS Inability to Feel aggregated score (day 7): 1
- MADRS Lassitude aggregated score (day 7): 3
- MADRS Pessimistic Thoughts aggregated score (day 7): 8
- BPRS Guilt Feelings aggregated score (day 7): 5
- BPRS Anxiety aggregated score (day 7): 6
- Further patients with MADRS clinical response (18 mg group n=4, day seven): 25%
- Patients with MADRS remission (total score ≤10) (18 mg group n=4, day seven): 25%
- Mean MADRS change from baseline (18 mg group, day seven): −12.8
- Mean MADRS change from baseline, percent (18 mg group, day seven): −41%
- Patients with MADRS remission (total score ≤10) (IDR (Part B) n=8, day seven, p<0.0001): 87.5%

Reference: US20240108601A1, “TREATMENT OF MENTAL DISORDERS” (GH Research Ireland Limited, priority 2022, published 2024)
